{"source": "paper PMC11096781", "about": "“Population pharmacokinetics of intravenous daptomycin in critically ill patients: implications for selection of dosage regimens” (Frontiers in Pharmacology, 2024)", "key": {"[1]": {"source_text": "Plasma samples were collected from patients who received an intravenous infusion of daptomycin in the intensive care unit (ICU) of Zhongnan Hospital of Wuhan University from April 2021 to December 2022 according to the inclusion and exclusion criteria and the clinical sample sampling protocol for blood drug concentration testing. Patients who fulfilled the following criteria were eligible: ≥18 years old; treated with daptomycin for proven/probable infections caused by Gram-positive organisms that were unresponsive or intolerant to other antimicrobial agents. The exclusion criteria were pregnancy, known or suspected hypersensitivity to daptomycin and its excipients, and incomplete or missing laboratory data before and after treatment.\nDaptomycin (Jiangsu Hengrui Medicine Co., Ltd.) dissolved in 100 mL normal saline was administered as a 30-min infusion. The daptomycin dose was 500 mg every 24 h. To obtain a complete blood drug concentration time curve after administration, we took into account the equilibrium phase (near peak concentration) and elimination phase of the drug in the design of sampling time points. On the first day of administration, blood samples were collected at 0, 0.5, 1, 2, 4, 8, 12, and 24 h after infusion. On the third day of administration, blood samples were collected before administration and at 0, 0.5, 1, 2, 4, 8, 12, and 24 h after infusion. On the fifth and seventh days, blood samples were collected before administration and at 0.5 and 4 h after infusion. Blood was drawn and allowed to clot in yellow blood-collecting tubes containing separating glue and a coagulant accelerator. Serum was collected by centrifugation and stored at −80°C until assayed. As soon as the study dose was administered, the participants were monitored for potential side effects. Serious adverse events were defined as adverse events related to daptomycin that required treatment discontinuation.\nSerum daptomycin concentrations were measured using a high-performance liquid chromatography-tandem mass spectrometry method developed in our laboratory, the lower limit of quantification was 0.05 μg mL^−1. Briefly, serum samples were analyzed after protein precipitation. Daptomycin-d5 (Beijing Hager Biotechnology Co., Ltd.) was used as an internal standard. A Waters ACQUITY UPLC C8 column (2.1 mm × 50 mm, 1.7 μm) was used for separation. The mobile phase consisted of phase A: water (0.1% formic acid), phase B: 1:1 methanol: acetonitrile (0.1% formic acid) at a flow rate of 0.4 mL min^−1, column temperature of 45°C, injection volume of 2 μL, and analysis time of 4 min. Ion transitions were performed using positive electrospray ionization in the multiple reaction monitoring mode.\nBefore measurement, the sample was restored to room temperature, 100 μL of 1:1 methanol: acetonitrile was measured into a […] EP tube, then 10 μL of daptomycin-d5 with 40 μL of sample/standard/quality control was added, the sample was vortex shaken for 1 min, centrifuged at high speed for 8 min (14,500 r/min), and the supernatant was placed in a 96-well plate for the assay.\nNONMEM (version 8.1; ICON Development Solutions, Hanover, MD, United States) was used to establish a population PK model for daptomycin and to perform Monte Carlo simulations ([Bauer et al., 2007]). The ADAPT-TRAN program was used for pre- and post-processing ([Savic et al., 2009]). This study explored one- and two-compartment models of population PK of daptomycin. The two-compartment, disposition model was parameterised in terms of total clearance (CL), volume of distribution in the central compartment (VC), volume of distribution in the peripheral compartment (VP), and intercompartmental clearance (Q). The first order conditional estimation with inter- and intra-subject variability interaction (FOCE-I) was employed for all model runs. The inter-individual variability (η) was described using lognormal distributions, and a mixed additive and proportional model was chosen for residual variability (Ɛ). […]"}, "[2]": {"experiment": "Monitoring of creatinine phosphokinase (CPK) and adverse reactions during treatment", "type": "in vivo, human", "conditions": "64 critically ill patients, 500 mg q24h i.v., during the treatment period", "method": "Demographic and clinical characteristics of the enrolled patients were also collected from the medical records, including age, sex, weight, diagnosis, comorbidities, outcome, combination of other drugs (including antimicrobials), daily complete blood counts, biochemical test results (including liver and renal function and creatinine phosphokinase (CPK)), and whether CRRT or ECMO therapy was performed. In addition, acute physiology and chronic health evaluation (APACHE) and sequential organ failure assessment (SOFA) scores were calculated for each patient to determine disease severity. The patient’s creatinine clearance (CLCR) was calculated according to the Cockcroft-Gault formula based on serum creatinine at steady state on day 3.\nThe daptomycin dose was 500 mg every 24 h."}, "[3]": {"conditions": "cited from earlier work"}, "[4]": {"conditions": "bootstrap analysis with 1000 samples"}}, "note": "Entries after “also recorded” stand apart in the source; their conditions may differ.", "data": [{"smiles": "CCCCCCCCCC(=O)N[C@@H](Cc1c[nH]c2ccccc12)C(=O)N[C@H](CC(N)=O)C(=O)N[C@@H](CC(=O)O)C(=O)N[C@@H]1C(=O)NCC(=O)N[C@@H](CCCN)C(=O)N[C@@H](CC(=O)O)C(=O)N[C@H](C)C(=O)N[C@@H](CC(=O)O)C(=O)NCC(=O)N[C@H](CO)C(=O)N[C@@H]([C@H](C)CC(=O)O)C(=O)N[C@@H](CC(=O)c2ccccc2N)C(=O)O[C@@H]1C", "note": "[daptomycin, Daptomycin]", "values": [{"measurement": "Q, bootstrap median", "setting": "[1]; [4]", "value": 2.086, "unit": "L/h"}, {"measurement": "VC, bootstrap median", "setting": "[1]; [4]", "value": 4.14, "unit": "L"}, {"measurement": "VP, bootstrap median", "setting": "[1]; [4]", "value": 3.527, "unit": "L"}, {"measurement": "CL, renal part: coefficient of CCR/54 in the final covariate model", "setting": "[1]; human, in vivo", "value": 0.148, "unit": "L/h"}, {"measurement": "CRRT clearance, bootstrap median", "setting": "[1]; human, in vivo", "value": 0.386, "unit": "L/h"}, {"measurement": "NR (no renal clearance), bootstrap median", "setting": "[1]; human, in vivo", "value": 0.231, "unit": "L/h"}, {"measurement": "Q", "setting": "[1]; human, in vivo", "value": "2.13 ± 0.17", "unit": "L/h"}, {"measurement": "R (renal clearance), bootstrap median", "setting": "[1]; human, in vivo", "value": 0.15}, {"measurement": "R (renal clearance), final model estimate", "setting": "[1]; human, in vivo", "value": 0.152}, {"measurement": "V1", "setting": "[1]; human, in vivo", "value": "4.20 ± 0.19", "unit": "L"}, {"measurement": "V2", "setting": "[1]; human, in vivo", "value": "3.67 ± 0.25", "unit": "L"}, {"measurement": "non-renal clearance rate (CLNR) of non-CRRT patients", "setting": "[1]; human, in vivo", "value": "0.23 ± 0.05", "unit": "L/h"}, {"measurement": "renal clearance part (CLR), coefficient × (CCR/54)", "setting": "[1]; human, in vivo", "value": "0.14 ± 0.035"}, {"measurement": "NR (no renal clearance), final model estimate", "setting": "[1]; human, in vivo, iv", "value": 0.229, "unit": "L/h"}, {"measurement": "Q (intercompartmental clearance), final model estimate", "setting": "[1]; human, in vivo, iv", "value": 2.09, "unit": "L/h"}, {"measurement": "VC (volume of distribution in the central compartment), final model estimate", "setting": "[1]; human, in vivo, iv", "value": 4.14, "unit": "L"}, {"measurement": "VP (volume of distribution in the peripheral compartment), final model estimate", "setting": "[1]; human, in vivo, iv", "value": 3.52, "unit": "L"}, {"measurement": "clearance", "setting": "[1]; human, in vivo, iv", "value": 6.43, "unit": "mL/min"}, {"measurement": "VP of males relative to females", "setting": "[1]; sex as covariate in forward inclusion, not retained in the final model", "value": "approximately 1.4 times"}, {"measurement": "CPK elevation or other adverse reactions related to daptomycin", "setting": "[2]", "value": "No increase in CPK or other adverse reactions; also recorded: no elevation of CPK associated with daptomycin was found"}, {"measurement": "metabolism by liver enzymes", "setting": "[3]; ref Dvorchik et al., 2004", "value": "not metabolized by liver enzymes"}, {"measurement": "eliminated by the kidneys", "setting": "[3]; ref Enoch et al., 2007", "value": 78, "unit": "%"}, {"measurement": "half-life", "setting": "[3]; ref Hawkey, 2008", "value": "approximately 8 h"}]}]}
